# Experimental data taken from US4110327A, “2,3 Diketo-piperazinocarbonylamino alkanoic acids and derivatives” (Toyama Chemical Co., Ltd., priority 1974, dated 1978).
# Tests used:
# Format in all cases: cell-based
# [1] = system: Salmonella typhi-murium; test: MIC against clinical isolates; conditions: unit assumed
# [2] = system: Salmonella typhi; test: MIC against clinical isolates; conditions: unit assumed
# [3] = system: Shigella flexneri; test: MIC against clinical isolates; conditions: unit assumed
# Experimental: (§1) The minimum inhibitory concentrations (MIC) was determined by the plate method disclosed in "Chemotherapy" (Japan), Vol. 16, (1968), pages 98 - 99. The culture medium used was a Heart infusion agar (pH 7.4). The number of the cells per plate used in the inoculum as 10^4 (10^6 cells/ml).
# (§2) MIC was determined in the same manner as in the preceding paragraph (1).
# [4] = system: Shigella sonnei; test: MIC against clinical isolates; conditions: unit assumed
# Experimental: as §1, §2
# [5] = system: Staphylococcus aureus; test: MIC against clinical isolates; conditions: unit assumed
# [6] = system: Pseudomonas aeruginosa I.F.O.; test: MIC against standard strain, plate method; conditions: unit assumed
# Method in brief: (§3)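 Heart infusion agar (pH 7.4) plates; inoculum 10^4 cells/plate (10^6 cells/ml suspension); MIC read by plate method.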
# [7] = system: Staphylococcus aureus 209p; test: MIC against standard strain, plate method; conditions: unit assumed
# Method in brief: as §3
# [8] = system: Escherichia coli NIHJ; test: MIC against standard strain, plate method; conditions: unit assumed
# Method in brief: as §3
# [9] = system: Proteus vulgaris 3027; test: MIC against standard strain, plate method; conditions: Proteus vulgaris 3027, standard strain; unit assumed
# Method in brief: as §3
# [10] = system: Klebsiella pneumoniae; test: MIC against standard strain, plate method; conditions: unit assumed
# Method in brief: as §3
# [11] = system: Klebsiella pneumoniae; test: MIC against clinical isolates; conditions: unit assumed
# [12] = system: Escherichia coli; test: MIC against clinical isolates; conditions: unit assumed
# [13] = system: Pseudomonas aeruginosa; test: MIC against clinical isolates; conditions: unit assumed
smiles,measurement,setting,value
"CC1(C)S[C@@H]2[C@H](NC(=O)C(c3ccccc3)S(=O)(=O)O)C(=O)N2[C@H]1C(=O)O (some centres unmarked) [Sodium Sulbenicillum, reference compound]",MIC,[1]; clinical isolate SL 858,25 µg/mL
same,MIC,[1]; clinical isolate SL 2136,> 200 µg/mL
same,MIC,[2]; clinical isolate SL 819,6.25 µg/mL
same,MIC,[2]; clinical isolate SL 2169,1.57 µg/mL
same,MIC,[3]; clinical isolate JS 11215,> 200 µg/mL
same,MIC,[3]; clinical isolate JS 11839,12.5 µg/mL
same,MIC,[4]; clinical isolate JS 11232,> 200 µg/mL
same,MIC,[4]; clinical isolate JS 11755,> 200 µg/mL
"Cc1nnc(SCC2=C(C(=O)O)N3C(=O)[C@@H](NC(=O)Cn4cnnn4)[C@H]3SC2)s1 [Sodium Cephazolin, SodiumCephazolin, reference compound]",MIC,[5]; clinical isolate F-1,0.78 µg/mL
same,MIC,[5]; clinical isolate F-2,< 0.4 µg/mL
same,MIC,[5]; clinical isolate F-3,< 0.4 µg/mL
same,MIC,[5]; clinical isolate F-4,< 0.4 µg/mL
same,MIC,[5]; clinical isolate F-5,0.78 µg/mL
same,MIC,[5]; clinical isolate MS 8588,< 0.4 µg/mL
same,MIC,[5]; clinical isolate MS 8596,< 0.4 µg/mL
same,MIC,[5]; clinical isolate MS 8619,< 0.4 µg/mL
same,MIC,[5]; clinical isolate MS 8684,< 0.4 µg/mL
same,MIC,[5]; clinical isolate MS 8713,< 0.4 µg/mL
same,MIC,[6],> 200 µg/mL
same,MIC,[7],< 1.57 µg/mL
same,MIC,[8],< 1.57 µg/mL
same,MIC,[9],1.57 µg/mL
same,MIC,[10],200 µg/mL
same,MIC,[11]; clinical isolate GN 917,1.56 µg/mL
same,MIC,[11]; clinical isolate GN 4081,3.13 µg/mL
same,MIC,[11]; clinical isolate GN 4117,3.13 µg/mL
same,MIC,[12]; clinical isolate GN 3435,1.56 µg/mL
same,MIC,[12]; clinical isolate GN 3452,1.56 µg/mL
same,MIC,[12]; clinical isolate GN 3481,1.56 µg/mL
same,MIC,[12]; clinical isolate GN 3611,25 µg/mL
same,MIC,[12]; clinical isolate K-1,1.56 µg/mL
same,MIC,[12]; clinical isolate K-2,1.56 µg/mL
same,MIC,[12]; clinical isolate K-3,> 200 µg/mL
same,MIC,[12]; clinical isolate K-4,3.13 µg/mL
same,MIC,[13]; clinical isolate GN 82,> 200 µg/mL
same,MIC,[13]; clinical isolate GN 163,> 200 µg/mL
same,MIC,[13]; clinical isolate GN 221,> 200 µg/mL
same,MIC,[13]; clinical isolate GN 244,> 200 µg/mL
same,MIC,[13]; clinical isolate GN 376,> 200 µg/mL
same,MIC,[13]; clinical isolate GN 383,> 200 µg/mL
same,MIC,[13]; clinical isolate GN 1035,> 200 µg/mL
same,MIC,[13]; clinical isolate GN 1091,> 200 µg/mL
same,MIC,[13]; clinical isolate GN 2565,> 200 µg/mL
same,MIC,[13]; clinical isolate GN 2987,> 200 µg/mL
same,MIC,[13]; clinical isolate S-1,> 200 µg/mL
same,MIC,[13]; clinical isolate S-2,> 200 µg/mL
same,MIC,[13]; clinical isolate S-3,> 200 µg/mL
same,MIC,[13]; clinical isolate S-4,> 200 µg/mL
CC(=O)N1CCN(C(=O)N[C@@H](C(=O)N[C@@H]2C(=O)N3[C@@H]2SC(C)(C)[C@@H]3C(=O)O)c2ccccc2)C(=O)C1 [compound 1],MIC,[5]; clinical isolate F-2,3.13 µg/mL
same,MIC,[5]; clinical isolate F-5,> 200 µg/mL
same,MIC,[5]; clinical isolate MS 8596,3.13 µg/mL
same,MIC,[5]; clinical isolate MS 8619,1.57 µg/mL
same,MIC,[5]; clinical isolate MS 8684,3.13 µg/mL
same,MIC,[5]; clinical isolate MS 8713,3.13 µg/mL
same,MIC,[6],25 µg/mL
same,MIC,[7],< 1.57 µg/mL
same,MIC,[8],< 1.57 µg/mL
same,MIC,[9],3.13 µg/mL
same,MIC,[1]; clinical isolate SL 858,12.5 µg/mL
same,MIC,[1]; clinical isolate SL 2136,> 200 µg/mL
same,MIC,[2]; clinical isolate SL 819,6.25 µg/mL
same,MIC,[2]; clinical isolate SL 2169,6.25 µg/mL
same,MIC,[11]; clinical isolate GN 917,25 µg/mL
same,MIC,[11]; clinical isolate GN 3850,25 µg/mL
same,MIC,[11]; clinical isolate GN 4081,> 200 µg/mL
same,MIC,[11]; clinical isolate GN 4117,200 µg/mL
same,MIC,[3]; clinical isolate JS 11215,100 µg/mL
same,MIC,[3]; clinical isolate JS 11839,3.13 µg/mL
same,MIC,[4]; clinical isolate JS 11232,> 200 µg/mL
same,MIC,[12]; clinical isolate GN 3465,200 µg/mL
same,MIC,[12]; clinical isolate K-2,25 µg/mL
same,MIC,[12]; clinical isolate K-3,> 200 µg/mL
same,MIC,[13]; clinical isolate GN 82,25 µg/mL
same,MIC,[13]; clinical isolate GN 163,25 µg/mL
same,MIC,[13]; clinical isolate GN 221,25 µg/mL
same,MIC,[13]; clinical isolate GN 376,25 µg/mL
same,MIC,[13]; clinical isolate GN 383,50 µg/mL
same,MIC,[13]; clinical isolate GN 1035,100 µg/mL
same,MIC,[13]; clinical isolate GN 1091,25 µg/mL
same,MIC,[13]; clinical isolate GN 2565,50 µg/mL
same,MIC,[13]; clinical isolate GN 2987,25 µg/mL
same,MIC,[13]; clinical isolate GN (number not given; Table 5-3),25 µg/mL
same,MIC,[13]; clinical isolate S-1,50 µg/mL
same,MIC,[13]; clinical isolate S-2,100 µg/mL
same,MIC,[13]; clinical isolate S-3,50 µg/mL
same,MIC,[13]; clinical isolate S-4,50 µg/mL
